Data on 3 compounds can be found in patent publication US7015242B2, “Methods for treating hyperactive gastrointestinal motility” (Wyeth, priority 2001, dated 2006).

By IC50 is commonly meant the point on the concentration scale where inhibition reaches its midpoint.

In experiment [1] the test system is isolated carbachol contracted rat bladder strips. Nature of the experiment: Relaxation of isolated carbachol contracted rat bladder strips. The conditions noted are these: for effect on retigabine-induced relaxation of bladder strips: M-current blockers added after retigabine. As to the method: (§1) Using quantitative rtPCR, the expression of KCNQ1, KCNQ3 and KCNQ5 potassium channels was identified in the rat urinary bladder. […] To further probe M-current activity in the bladder, retigabine (10 μM, M-current agonist) was tested in isolated bladder smooth muscle cells using standard patch-clamp techniques. […] This hyperpolarization was reversed by the addition of linopirdine (50 μM an M-current antagonist) to the tissue bath. […] This relaxation was reversed by the M-current blockers linopirdine and XE-991.

Experiment [2] concerns isolated precontracted guinea pig ileum. Description: Isolated precontracted guinea pig ileum preparations in tissue bath. The protocol: Following the procedures of the previous example, the effects of retigabine on isolated precontracted guinea pig ileum preparations were studied. Sections of ileum were isolated from male guinea pigs and suspended in a tissue bath. One end of the tissue was anchored to the bottom of the bath, and the other end to a force transducer. Tissues were contracted with either 20 mM KCl or 200 nM carbachol. The KCNQ channel agonist retigabine was added to the tissue baths in increasing concentrations.

The subject of experiment [3] is isolated bladder smooth muscle cells. Description: Patch-clamp of isolated bladder smooth muscle cells (M-current activity). It counts as cell-based, rat. The protocol:
as §1
(In patch-clamp work, channel activity is measured electrically.)

Experiment [4] concerns the target T1, KCNQ2/3 potassium channels (Homo sapiens, UniProt O43525+O43526).
T1 construct: host or cells: oocytes (heterologous expression, as described in the cited article)
To be noted: oocytes; cited from earlier work.

T1 sequence (O43526 whole entry): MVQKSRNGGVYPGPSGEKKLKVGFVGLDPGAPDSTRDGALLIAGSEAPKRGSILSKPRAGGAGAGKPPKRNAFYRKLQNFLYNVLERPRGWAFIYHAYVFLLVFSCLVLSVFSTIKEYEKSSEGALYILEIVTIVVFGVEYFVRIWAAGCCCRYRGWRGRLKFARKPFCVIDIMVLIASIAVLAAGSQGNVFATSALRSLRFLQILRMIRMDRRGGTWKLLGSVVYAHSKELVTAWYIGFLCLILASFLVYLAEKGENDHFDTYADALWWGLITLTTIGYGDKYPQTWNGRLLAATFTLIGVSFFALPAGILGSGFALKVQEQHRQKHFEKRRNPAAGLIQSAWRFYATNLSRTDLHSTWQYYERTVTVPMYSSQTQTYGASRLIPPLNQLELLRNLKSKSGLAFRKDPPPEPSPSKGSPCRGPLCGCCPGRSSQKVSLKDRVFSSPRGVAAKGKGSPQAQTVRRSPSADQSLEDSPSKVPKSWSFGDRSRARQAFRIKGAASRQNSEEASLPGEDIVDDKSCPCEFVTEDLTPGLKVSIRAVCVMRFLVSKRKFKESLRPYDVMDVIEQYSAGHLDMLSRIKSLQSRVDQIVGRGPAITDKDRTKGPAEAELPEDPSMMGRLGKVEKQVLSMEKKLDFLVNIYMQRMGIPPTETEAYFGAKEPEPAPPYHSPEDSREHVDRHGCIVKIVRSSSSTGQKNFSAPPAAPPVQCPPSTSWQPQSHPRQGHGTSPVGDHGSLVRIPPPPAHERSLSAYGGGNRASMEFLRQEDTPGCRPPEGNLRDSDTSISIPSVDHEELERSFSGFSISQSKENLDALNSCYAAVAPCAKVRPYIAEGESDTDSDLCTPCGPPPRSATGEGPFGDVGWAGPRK
T1 sequence (O43525 whole entry): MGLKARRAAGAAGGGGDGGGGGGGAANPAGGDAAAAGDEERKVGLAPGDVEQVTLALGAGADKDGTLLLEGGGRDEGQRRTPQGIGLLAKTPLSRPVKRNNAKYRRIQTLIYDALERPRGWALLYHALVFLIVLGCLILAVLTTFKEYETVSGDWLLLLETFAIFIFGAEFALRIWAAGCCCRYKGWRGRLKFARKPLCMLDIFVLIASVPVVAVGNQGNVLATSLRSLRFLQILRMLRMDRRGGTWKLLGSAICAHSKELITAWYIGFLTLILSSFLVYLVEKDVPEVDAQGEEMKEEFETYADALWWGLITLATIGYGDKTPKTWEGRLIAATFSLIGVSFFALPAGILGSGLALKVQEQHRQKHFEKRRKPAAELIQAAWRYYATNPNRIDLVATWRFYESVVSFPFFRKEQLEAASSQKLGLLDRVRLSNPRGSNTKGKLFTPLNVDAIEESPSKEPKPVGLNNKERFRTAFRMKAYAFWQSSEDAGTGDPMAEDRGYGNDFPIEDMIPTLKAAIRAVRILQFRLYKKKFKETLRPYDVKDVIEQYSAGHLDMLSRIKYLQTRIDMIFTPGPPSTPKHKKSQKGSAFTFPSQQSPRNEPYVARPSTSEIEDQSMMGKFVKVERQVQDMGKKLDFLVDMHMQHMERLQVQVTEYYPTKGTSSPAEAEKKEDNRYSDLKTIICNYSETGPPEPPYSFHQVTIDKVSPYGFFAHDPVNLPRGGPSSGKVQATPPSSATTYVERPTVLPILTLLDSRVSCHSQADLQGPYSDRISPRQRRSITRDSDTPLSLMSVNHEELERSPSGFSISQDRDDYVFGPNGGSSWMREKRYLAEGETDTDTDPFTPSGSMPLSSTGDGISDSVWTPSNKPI

For the compound `O=C1c2ccccc2C(Cc2ccncc2)(Cc2ccncc2)c2ccccc21` [XE-991], the “effect on retigabine-induced relaxation of bladder strips” value in experiment [1] was “reversed”. For the same compound, the “effect on responses to retigabine in ileum” value in experiment [2] (both KCl and carbachol contracted tissues) is “antagonized”.

In the case of `CCOC(=O)Nc1ccc(NCc2ccc(F)cc2)cc1N` [retigabine, N-[2-amino-4-(4-fluorobenzylamino)-phenyl]carbamic acid ethyl ester], in experiment [3] (retigabine 10 μM, n=5), the membrane hyperpolarization is recorded as 17.8±3.0 mV. The “outward current insensitive to iberiotoxin” value in experiment [3] (retigabine 10 μM, standard patch-clamp) was “significantly increased”. Moreover, in experiment [1] (Rattus norvegicus, read-out: IC50 of relaxation of carbachol contracted bladder strips), the IC50 was 3.5 ± 0.9 µM. Moreover, the “inhibition of contraction of ileum” value in experiment [2] (tissues contracted with 20 mM KCl or 200 nM carbachol, increasing concentrations) is “concentration-dependent inhibition of contraction”. In addition, in experiment [4], the channel deactivation entry is on record as “slows channel deactivation”, the “rate of channel activation” value is listed as “increases the rate of channel activation” and the “voltage dependence of channel activation” value was “shifts the voltage dependence of channel activation to more hyperpolarized membrane potentials”.

For `O=C1N(c2ccccc2)c2ccccc2C1(Cc1ccncc1)Cc1ccncc1` [linopirdine], the “effect on retigabine-induced hyperpolarization” value in experiment [3] (linopirdine 50 μM added to the tissue bath) is recorded as “reversed”. The “effect on retigabine-induced relaxation of bladder strips” value in experiment [1] is “reversed”.
